Reference: ChEMBL document CHEMBL1139739, “Inhibition of Tpl2 kinase and TNFalpha production with quinoline-3-carbonitriles for the treatment of rheumatoid arthritis” (Bioorg Med Chem Lett, 2006)
One block for each compound: values may come before it. Active and inactive are the calls of the source. The calls are words filed in the database; no cut-off is given here.

Key:
[1] = target: Mitogen-activated protein kinase kinase kinase 8 (Homo sapiens, UniProt P41279); assay: Inhibition of Tpl2 kinase by ELISA
Sequence of Mitogen-activated protein kinase kinase kinase 8 (P41279 whole entry): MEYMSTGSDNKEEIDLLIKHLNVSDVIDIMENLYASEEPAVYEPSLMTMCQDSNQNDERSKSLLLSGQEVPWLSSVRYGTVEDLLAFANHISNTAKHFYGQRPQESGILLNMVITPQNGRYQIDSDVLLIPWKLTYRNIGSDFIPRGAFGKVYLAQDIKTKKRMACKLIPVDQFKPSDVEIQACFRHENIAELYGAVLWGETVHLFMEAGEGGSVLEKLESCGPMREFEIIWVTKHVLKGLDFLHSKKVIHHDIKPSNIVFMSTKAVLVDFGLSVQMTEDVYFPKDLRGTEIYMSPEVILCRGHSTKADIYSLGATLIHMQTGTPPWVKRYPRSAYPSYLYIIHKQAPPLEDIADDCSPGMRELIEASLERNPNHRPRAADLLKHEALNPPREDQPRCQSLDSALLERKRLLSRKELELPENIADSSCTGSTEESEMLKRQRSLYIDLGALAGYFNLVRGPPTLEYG

Monocyte [2] = assay: Inhibition of LPS-induced TNFalpha production in human monocytes by ELISA; type: functional
Mus musculus [3] = assay: Inhibition of LPS/D-gal-induced TNFalpha production in C57B1/6 mouse at 50 mg/kg, ip; type: functional; details: C57B1/6, ip, route intraperitoneal
Blood = assay: Inhibition of LPS-induced TNFalpha production in human whole blood by ELISA; type: functional
Monocyte [4] = assay: Inhibition of MK2 phosphorylation in LPS-treated human monocytes; type: functional
Monocyte [5] = assay: Inhibition of IkappaBalpha phosphorylation in LPS-treated human monocytes; type: functional
[6] = target: Proto-oncogene tyrosine-protein kinase Src (Homo sapiens) (UniProt P12931); assay: Inhibition of Src kinase
Sequence of Proto-oncogene tyrosine-protein kinase Src (Homo sapiens) (P12931 2-536 limits assumed): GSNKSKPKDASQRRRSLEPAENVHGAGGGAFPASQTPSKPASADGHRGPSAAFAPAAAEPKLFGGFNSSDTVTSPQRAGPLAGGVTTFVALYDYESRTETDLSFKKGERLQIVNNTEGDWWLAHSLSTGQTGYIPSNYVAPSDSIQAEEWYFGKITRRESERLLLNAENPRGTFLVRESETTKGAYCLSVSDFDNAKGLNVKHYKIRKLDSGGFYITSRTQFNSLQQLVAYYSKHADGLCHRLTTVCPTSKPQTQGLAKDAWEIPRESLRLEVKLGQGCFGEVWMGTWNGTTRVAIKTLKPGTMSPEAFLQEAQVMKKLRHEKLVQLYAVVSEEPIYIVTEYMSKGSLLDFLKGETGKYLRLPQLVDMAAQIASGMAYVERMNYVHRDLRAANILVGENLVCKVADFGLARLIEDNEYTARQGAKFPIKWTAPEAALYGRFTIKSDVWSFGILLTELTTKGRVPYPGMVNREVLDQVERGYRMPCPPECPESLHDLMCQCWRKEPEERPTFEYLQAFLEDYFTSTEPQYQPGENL

[7] = target: Ribosomal protein S6 kinase beta-1 (Homo sapiens) (UniProt P23443); assay: Inhibition of S6 kinase
Sequence of Ribosomal protein S6 kinase beta-1 (Homo sapiens) (P23443 whole entry, looked up): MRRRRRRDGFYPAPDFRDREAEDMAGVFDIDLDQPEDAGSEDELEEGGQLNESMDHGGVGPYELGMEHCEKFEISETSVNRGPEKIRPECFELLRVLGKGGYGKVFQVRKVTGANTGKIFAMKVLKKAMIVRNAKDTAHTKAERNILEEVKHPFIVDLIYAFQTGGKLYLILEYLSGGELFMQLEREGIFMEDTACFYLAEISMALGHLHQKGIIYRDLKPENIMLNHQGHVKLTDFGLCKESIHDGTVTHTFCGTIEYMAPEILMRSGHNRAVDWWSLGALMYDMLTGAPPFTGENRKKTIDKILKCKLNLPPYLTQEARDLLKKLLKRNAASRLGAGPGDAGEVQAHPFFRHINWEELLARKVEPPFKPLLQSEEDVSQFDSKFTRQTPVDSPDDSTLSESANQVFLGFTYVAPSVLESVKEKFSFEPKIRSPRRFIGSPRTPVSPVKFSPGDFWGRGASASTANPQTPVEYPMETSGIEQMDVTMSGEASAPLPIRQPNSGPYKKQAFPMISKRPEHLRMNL

Mus musculus [8] = assay: Inhibition of LPS/D-gal-induced TNFalpha production in C57B1/6 mouse at 25 mg/kg, ip; type: functional; details: C57B1/6, ip, route intraperitoneal
[9] = target: Dual specificity mitogen-activated protein kinase kinase 1 (Homo sapiens) (UniProt Q02750); assay: Inhibition of MEK
Sequence of Dual specificity mitogen-activated protein kinase kinase 1 (Homo sapiens) (Q02750 whole entry): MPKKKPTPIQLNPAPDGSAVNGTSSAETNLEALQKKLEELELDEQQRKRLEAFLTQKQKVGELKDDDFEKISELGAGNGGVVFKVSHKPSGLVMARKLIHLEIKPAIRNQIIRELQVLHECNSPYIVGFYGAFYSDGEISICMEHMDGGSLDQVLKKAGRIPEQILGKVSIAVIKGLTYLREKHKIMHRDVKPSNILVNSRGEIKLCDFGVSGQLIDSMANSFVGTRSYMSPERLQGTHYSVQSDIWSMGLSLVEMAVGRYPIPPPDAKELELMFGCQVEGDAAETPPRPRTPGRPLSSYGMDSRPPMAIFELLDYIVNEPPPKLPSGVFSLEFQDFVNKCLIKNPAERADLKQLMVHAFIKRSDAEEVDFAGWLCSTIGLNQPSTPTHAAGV

[10] = target: CaM kinase II (Homo sapiens) (UniProt Q13557+Q13555+Q13554+Q9UQM7); assay: Inhibition of CAMK2; type: protein assay
[11] = target: Protein kinase C (PKC) (Homo sapiens) (UniProt O94806+P41743+P17252+P05129+Q05655+P05771+Q05513+Q02156+P24723+Q15139+Q04759); assay: Inhibition of PKC; type: protein assay
Monocyte [12] = assay: Inhibition of cJun phosphorylation in LPS-treated human monocytes; type: functional
[13] = target: MAP kinase-activated protein kinase 2 (Homo sapiens) (UniProt P49137); assay: Inhibition of MK2
Sequence of MAP kinase-activated protein kinase 2 (Homo sapiens) (P49137 whole entry, looked up): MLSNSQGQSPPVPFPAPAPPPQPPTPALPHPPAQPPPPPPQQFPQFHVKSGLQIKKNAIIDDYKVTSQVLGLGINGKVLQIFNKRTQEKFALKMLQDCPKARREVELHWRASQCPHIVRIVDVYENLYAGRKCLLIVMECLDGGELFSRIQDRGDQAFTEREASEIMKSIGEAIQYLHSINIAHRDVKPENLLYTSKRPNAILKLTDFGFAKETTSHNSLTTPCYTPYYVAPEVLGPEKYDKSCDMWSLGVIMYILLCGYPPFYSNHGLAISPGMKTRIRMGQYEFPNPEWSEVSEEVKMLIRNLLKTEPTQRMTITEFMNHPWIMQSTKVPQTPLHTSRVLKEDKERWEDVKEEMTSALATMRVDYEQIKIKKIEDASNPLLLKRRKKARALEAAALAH

Monocyte [14] = assay: Inhibition of p38 kinase phosphorylation in LPS-treated human monocytes; type: functional

IC50 [1]: 2200 nM
SMILES: N#Cc1cnc2ccc(NCC3CCCO3)cc2c1Nc1ccc(F)c(Cl)c1 (stereo not drawn)

IC50 [1]: 640 nM
SMILES: CCc1ncc(CNc2ccc3ncc(C#N)c(Nc4ccc(F)c(Cl)c4)c3c2)[nH]1

IC50 [1]: 11 nM
SMILES: N#Cc1cnc2ccc(NCc3cccc[n+]3[O-])cc2c1Nc1ccc(F)c(Cl)c1
inhibitory concentration (Monocyte [2]): 1.7 µM
inhibition in vivo at 50 mg/kg (Mus musculus [3]): 54%
inhibitory concentration (Blood): 7.8 µM

IC50 [1]: > 40000 nM
SMILES: N#Cc1cnc2ccc(Nc3ccccc3)cc2c1Nc1ccc(F)c(Cl)c1

IC50 [1]: 100 nM
SMILES: N#Cc1cccc(CNc2ccc3ncc(C#N)c(Nc4ccc(F)c(Cl)c4)c3c2)c1

IC50 [1]: 30000 nM
SMILES: N#Cc1cnc2ccc(NCC3CCCN3)cc2c1Nc1ccc(F)c(Cl)c1 (stereo not drawn)

IC50 [1]: 110 nM
SMILES: N#Cc1cnc2ccc(NCc3ccc(S(N)(=O)=O)cc3)cc2c1Nc1ccc(F)c(Cl)c1

IC50 [1]: > 40000 nM
SMILES: N#Cc1cnc2ccc(NCCN3CCOCC3)cc2c1Oc1ccc(F)c(Cl)c1

IC50 [1]: 210 nM
SMILES: N#Cc1cnc2ccc(NCc3ccccc3)cc2c1Nc1ccc(F)c(Cl)c1

IC50 [1]: > 10000 nM
SMILES: N#Cc1cnc2ccc(NCCN3CCOCC3)cc2c1Sc1ccc(F)c(Cl)c1

IC50 [1]: 90 nM
SMILES: N#Cc1cnc2ccc(NCc3ccccn3)cc2c1Nc1ccc(F)c(Cl)c1

IC50 [1]: 7000 nM
SMILES: CCN1CCC[C@@H]1CNc1ccc2ncc(C#N)c(Nc3ccc(F)c(Cl)c3)c2c1

IC50 [1]: 60 nM
SMILES: CC(Nc1ccc2ncc(C#N)c(Nc3ccc(F)c(Cl)c3)c2c1)c1ccccn1 (stereo not drawn)

Activity [6]: inactive
Inhibition [7]: > 10 µM
IC50 [9]: 2400 nM
Activity [10]: inactive
Inhibition [11]: > 10 µM
Activity [13]: inactive
SMILES: N#Cc1cnc2ccc(NCc3c[nH]cn3)cc2c1Nc1ccc(F)c(Cl)c1
Inhibition (Monocyte [4]): >5 µM
Inhibition (Monocyte [5]): >5 µM
inhibitory concentration (Monocyte [2]): 0.46 µM
inhibition in vivo at 25 mg/kg (Mus musculus [8]): 70%
Inhibition (Monocyte [12]): 5 µM
inhibitory concentration (Blood): 3.3 µM
Inhibition (Monocyte [14]): 2.11 µM

IC50 [1]: 180 nM
SMILES: CCN1CCC[C@H]1CNc1ccc2ncc(C#N)c(Nc3ccc(F)c(Cl)c3)c2c1

IC50 [1]: 11500 nM
SMILES: N#Cc1cnc2ccc(NS(=O)(=O)c3ccccc3)cc2c1Nc1ccc(F)c(Cl)c1

The next lines start with the compound.

SMILES: N#Cc1cnc2cnc(NCc3ccccc3)cc2c1Nc1ccc(F)c(Cl)c1
IC50 [1]: 140 nM

SMILES: CC(C)Oc1cc2ncc(C#N)c(Nc3ccc(F)c(Cl)c3)c2cc1NCc1cnc[nH]1
IC50 [1]: > 40000 nM

SMILES: N#Cc1c(Nc2ccc(F)c(Cl)c2)c2cc(NCc3cnc[nH]3)ccc2[nH]c1=O
IC50 [1]: > 40000 nM

SMILES: Cc1ncn(CCN2CCOCC2)c1CNc1ccc2ncc(C#N)c(Nc3ccc(F)c(Cl)c3)c2c1
inhibitory concentration (Monocyte [2]): 0.7 µM
inhibitory concentration (Blood): 13.2 µM

SMILES: Cc1nc2ccc(NCc3cnc[nH]3)cc2c(Nc2ccc(F)c(Cl)c2)c1C#N
IC50 [1]: 19000 nM

SMILES: N#Cc1cnc2ccc(NCc3nccs3)cc2c1Nc1ccc(F)c(Cl)c1
inhibitory concentration (Monocyte [2]): 0.6 µM
inhibitory concentration (Blood): >20 µM

SMILES: N#Cc1cnc2cc(OC(F)(F)F)c(NCc3cnc[nH]3)cc2c1Nc1ccc(F)c(Cl)c1
IC50 [1]: > 40000 nM

SMILES: Cc1c(CNc2ccc3ncc(C#N)c(Nc4ccc(F)c(Cl)c4)c3c2)ncn1C
inhibitory concentration (Monocyte [2]): 0.4 µM
inhibitory concentration (Blood): 15.8 µM
IC50 [1]: 3 nM

SMILES: Cc1[nH]cnc1CNc1ccc2ncc(C#N)c(Nc3ccc(F)c(Cl)c3)c2c1
inhibitory concentration (Monocyte [2]): 0.4 µM
inhibition in vivo at 50 mg/kg (Mus musculus [3]): 84%
inhibitory concentration (Blood): 7.9 µM
IC50 [1]: 3 nM

SMILES: N#Cc1cnc2ccc(CCc3ccccc3)cc2c1Nc1ccc(F)c(Cl)c1
IC50 [1]: > 10000 nM
